{"source": "patent US11969499B2", "about": "“Hydrogel delivery of sting immunotherapy for treatment cancer” (WILLIAM MARSH RICE UNIVERSITY, priority 2017, dated 2024)", "key": {"[1]": {"assay": "CDN drug release kinetics from hydrogels (UV absorbance at 259 nm)", "assay_type": "physicochemical", "protocol": "CDN release kinetics. 30 μL CDN-loaded gel aliquots are deposited into 96 well plates with 200 μL of buffer added to the top of the gels at time point t=0. For all kinetics experiments, a Thermo Scientific Nanodrop 2000C Spectrophotometer is used to measure UV absorbance at 259 nm, the characteristic wavelength of maximum absorbance for the adenine nucleobases present in the CDN. See FIG. 1A for an example of preliminary release kinetics data.\nCDN drug release kinetics. To study the kinetics of CDN release from STINGel vs. collagen gel, 30 μL CDN-loaded gel aliquots were deposited into Falcon® 96 well flat bottom polystyrene plates (Becton Dickinson Labware, Franklin Lakes, NJ). For each experiment, cylindrical pucks of the 30 μL gel aliquots were created in each well, allowing the pipetted gels to shear recover for at least 5 mM before adding 200 μL of buffer (1×HBSS for STINGel, lx DPBS for collagen, according to gelation requirements) to the top of the gels at what was defined as t=0 for the start of kinetics experiments. The buffer height was approximately 2.5 mm, the gel thickness approximately 0.5 mm, and the gel's solvent exposed surface area approximately 12.6 mm^2.\nA Thermo Scientific Nanodrop 2000C Spectrophotometer was used to measure UV absorbance at 259 nm, the characteristic wavelength of maximum absorbance for the CDN's adenine nucleobases. An extinction coefficient of 24,000 M^−1 cm^−1 at 259 nm was used. Absorbance measurements were taken by removal of 1 μL aliquots from the surface of the buffers, measuring the increase in absorbance over time. Release of CDN was measured over the course of the first 24 hours and converted to total percent released, with additional measurements also made at 48 and 72 hours to confirm that the samples had reached equilibrium."}, "MOC2-E6E7 cells": {"system": "MOC2-E6E7 cells", "assay": "In vitro live/dead cell viability in unloaded and CDN-loaded MDP hydrogel", "assay_type": "cell-based", "details": "no CDN, cells in 3-D gel, up to 7 days", "protocol": "Preparation of cell—laden hydrogel for in vitro viability. MDP gel formulations with MOC2-E6E7 cells were prepared by diluting a cell suspension of 2,000,000 cells/mL in 2×HBSS with an equal volume of 4×CDN. The resulting suspension was then added to an equal volume of sterile 2 wt. % peptide in 298 mM sucrose and mixed to produce final samples of approximately 35,000 cells per 70 μL of 1 wt. %, 149 mM sucrose gel. Gels were then transferred into 0.4 cm 2 wells of Lab-Tek 16 well glass chamber slides (Thermo Fischer, Rochester, NY), pipetted to produce 70 μL pucks with flat profiles. Samples were allowed to shear recover for 5-10 mM before adding 200 μL cell media on top of each gel. The cell media was changed every 2 days, taking care to not dislodge the hydrogel material.\nCell viability was determined at each desired time point by performing live/dead assays as described below. Live/dead staining solution was prepared in DPBS with 2 μM Calcein AM for live cells (Life Technologies), 4 μM Ethidium homodimer for dead cells (Life Technologies), and 5 μg/mL Hoechst 33342 for nuclei (MP Biomedicals, Solon, OH). […] Cell media was removed and the gels were washed with PBS. Samples were then stained with 100 μL of prepared solution by incubating at RT for 15-30 mM. Following staining, gels were placed in PBS for immediate analysis by confocal microscopy. Gels were analyzed by z-stack imaging (100 μm) using a Nikon A1 Confocal Microscope with 20× air and 40× water objectives (405 nm blue channel laser, 488 nm green channel laser, 561 nm red channel laser). Image processing was done using NIS Elements, and live/dead cell counting was performed using the cell identification tool in Imaris 3D/4D Image Processing software, manually verified with nuclear counts when resolution allowed."}, "[2]": {"system": "CD45+/CD11b+/CD11c+ dendritic cells", "assay": "Flow cytometric analysis of implant infiltration", "assay_type": "in vivo, mice", "details": "for recruitment of immune cells to the hydrogel in vivo: subcutaneous flank of mice, within 3 days", "protocol": "Flow cytometric analysis of implant infiltration. Implanted gels are harvested from mice, digested and processed into single cell suspension. Cells are incubated with blocking antibody, followed by addition of antibodies to create three panels: myeloid cells (CD45, Gr-1, Ly-6C, CD11b, F4/80), lymphoid cells (CD45, NK-1.1, CD11b, CD3e, CD8a, CD4, CD19) and dendritic cells (CD45, CD8a, CD11b, CD11c, PDCA-1 and CD103). For each time point five mice with two hydrogel boluses are assessed for an n of 10."}, "MOC-2-E6E7 tumors": {"system": "MOC-2-E6E7 tumors", "assay": "MOC-2-E6E7 orthotopic murine model of HNSCC, survival (Example 2, FIG. 2E)", "parameters": "species or system C57BL/6 mice", "details": "mouse, in vivo", "protocol": "MOC-2-E6E7 Orthotopic murine model of HNSCC. 6 week-old male and female C57BL/6 mice will be inoculated in the left maxillary vestibule with MOC-2-E6E7 cells (30,000 cells in 30 μl volume). Animals will be monitored using a body condition scoring system to ensure they maintain a healthy weight and show no obvious signs of distress. At Day 14 post-tumor inoculation, STINGel (20 jug CDN in 30 μl of MDP hydrogel) or controls (as above) are injected into the oral tumor site. Animal studies will be done in triplicate, independent experiments for significance. Between-group differences in flow cytometric data will be statistically evaluated with one-way ANOVA and post-hoc analysis using Tukey's method. Differences between groups will be considered significant if p<0.05. In efficacy studies, Kaplan-Meier survival curves will be compared using the log-rank/Mantel-Cox test and tumor growth curves will be analyzed using the Koziol method (Koziol et al., 1981; 1982)."}, "[3]": {"details": "30 μL gels loaded with 910 μM CDN under 200 μL buffer"}}, "data": [{"substance": "K2(SL)6K2 (SEQ ID NO: 1) (Ac-KKSLSLSLSLSLSLKK-NH2) [MDP gel, self-assembling multidomain peptide hydrogel, acetylated N-terminus and C-terminal amide]", "values": [{"measurement": "decrease in release rate compared to collagen control gels, factor", "setting": "[1]; [3]", "result": 8}, {"measurement": "maximum release of loaded CDN (plateau/equilibrium)", "setting": "[1]; [3]", "result": "approximately 68%"}, {"measurement": "release rate in the initial linear release phase", "setting": "[1]; [3]", "result": 1.0, "unit": "nmol CDN/hour"}, {"measurement": "time of CDN release until equilibrium with surrounding buffer", "setting": "[1]; [3]", "result": "14 to 15", "unit": "h"}, {"measurement": "release profile of gels (FIG. 3A)", "setting": "[1]; CDN release, preliminary data", "result": "intermediate release rates"}, {"measurement": "cytocompatibility of unloaded hydrogel", "setting": "MOC2-E6E7 cells; listed as Lys-MDP", "result": "substantial MOC-2-E6E7 proliferation (green cells) & minimal cell death"}, {"measurement": "cytocompatibility of unloaded hydrogel", "setting": "MOC2-E6E7 cells; listed as MDP hydrogel", "result": "not intrinsically toxic"}, {"measurement": "cytocompatibility of unloaded hydrogel", "setting": "MOC2-E6E7 cells; listed as unloaded MDP gel", "result": "fully biocompatible"}, {"measurement": "cytocompatibility of unloaded hydrogel", "setting": "MOC2-E6E7 cells; listed as unloaded MDP hydrogel", "result": "cells are able to survive and proliferate within the 3-D hydrogel matrix"}, {"measurement": "recruitment of immune cells to the hydrogel in vivo", "setting": "[2]; listed as Lys-MDP", "result": "substantial population"}, {"measurement": "recruitment of immune cells to the hydrogel in vivo", "setting": "[2]; listed as MDP hydrogel", "result": "robust recruitment of immunocytes"}, {"measurement": "CD45+/CD11b+/CD11c+ dendritic cells", "setting": "[2]; three days after subcutaneous injection, un-loaded", "result": 13.5, "unit": "%"}, {"measurement": "mortality before day 60", "setting": "MOC-2-E6E7 tumors", "result": 100, "unit": "%"}]}]}
